Assay results as given in patent US12064482B2, “Triplet-triplet energy transfer with light excitation at long wavelengths and methods thereof” (THE UNIVERSITY OF HONG KONG, priority 2018, dated 2024).

What was measured:
[1] = Photocleavage of BODIPY-CAB and photorelease of CAB in solution, determined by HPLC; type: physicochemical
From the text: FIG. 4. HPLC spectra of CAB (10^−4 M), PtTPBP (10^−5 M), BODIPY-CAB (10^−4 M), BODIPY-CAB (10^−4 M) with 530 nm irradiation (44 mW/cm^2) for 15 s under N2 atmosphere, the mixture of BODIPY-CAB (10^−4 M) and PtTPBP (10^−5 M) with 625 nm irradiation (44 mW/cm^2) for 15 s under N2 atmosphere, the mixture of BODIPY-CAB (10^−4 M) and PtTPBP (10^−5 M) without irradiation under N2 atmosphere, and BODIPY-CAB (10^−4 M) with 625 nm irradiation (44 mW/cm^2) for 15 s under N2 atmosphere. The detection wavelength was 260 nm. A small amount of toluene, whose peak was located at ˜8.7 min, was used to increase the solubility of PtTPBP. The yellow arrows indicate the signal of CAB; the red arrows indicate the signal of BODIPY-CAB; and the green arrows indicate the signal of PtTPBP.
FIG. 5. Photocleavage rate of the prodrug (BODIPY-CAB), as determined by HPLC (detected at 540 nm), after irradiation with 625 nm LED light at 44 mW/cm^2. The mixed solution of BODIPY-CAB (10^−4 M) and PtTPBP (10^−5 M, […] or 0 M) was protected under nitrogen (N2) or exposed in the air, and then irradiated for different time periods in the mixed solvents of dichloromethane (DCM) and methanol (1:9, v/v). The solution (50 μL) was then analyzed by HPLC to measure the concentration of BODIPY-CAB. Data are means±SD, n=3.
FIG. 6. Photorelease of the free drug (CAB), as determined by HPLC (detected at 260 nm), after irradiation with 625 nm LED light at 44 mW/cm^2. The mixed solution of BODIPY-CAB (10^−4 M) and PtTPBP ([…], 5×10^−6 M, 10^−6 M or 0 M) was protected under nitrogen (N2) or exposed in the air, and then irradiated for different time periods in the mixed solvents of dichloromethane (DCM) and methanol (1:9, v/v). The solution (50 μL) was then analyzed by HPLC to measure the concentration of CAB. Data are means f SD, n=3.
The intermediates and the final product were characterized by proton nuclear magnetic resonance (^1H NMR) spectra (FIG. 12-FIG. 15). The absorption and emission peaks of BODIPY-CAB were located at the wavelength of 543 nm and 567 nm, respectively (FIG. 3). To confirm whether the BODIPY prodrug could be sensitized by PtTPBP and could further be cleaved to release the drug, high performance liquid chromatography (HPLC) was utilized to monitor the generation of CAB. […] After addition of photosensitizer PtTPBP, the mixture solution of PtTPBP and BODIPY-CAB was irradiated with 625 nm light for 15 sec.
Furthermore, the photocleavage of BODIPY-CAB was investigated with different ratios of BODIPY-CAB and PtTPBP upon 625 nm light irradiation. […] When the concentration of photosensitizer was decreased, the photocleavage of BODIPY-CAB slowed down. […] Moreover, as O2 can quench the triplet excited state of PtTPBP, the prodrug cannot be cleaved efficiently in the presence of O2.

[2] = literature ref. [10]; cited from earlier work

Row | SMILES | generation of CAB (HPLC) ([1]; 530 nm (44 mW/cm^2), 15 s, no photosensitizer, N2) | generation of CAB (HPLC) ([1]; 625 nm (44 mW/cm^2), 15 s, with PtTPBP, N2) | generation of CAB (HPLC) ([1]; 625 nm, 15 s, in the absence of PtTPBP, N2) | rate of photocleavage and photorelease ([1]; 625 nm, with PtTPBP, in the air atmosphere (O2)) | prodrug remained in the solution ([1]; BODIPY-CAB:PtTPBP 100:1, 625 nm LED 44 mW/cm^2, 30 s, N2) | photocleavage of the prodrug ([1]; BODIPY-CAB:PtTPBP 100:10, 625 nm LED 44 mW/cm^2, 15 s, N2) | free drug CAB released ([1]; BODIPY-CAB:PtTPBP 100:10, 625 nm LED 44 mW/cm^2, 15 s, N2, DCM/methanol 1:9) | generation of CAB (HPLC) ([1]; mixture with PtTPBP not irradiated, N2) | cytotoxicity [2]
1 | CC1=C(I)C(C)=[N+]2C1=C(COC(=O)CCCc1ccc(N(CCCl)CCCl)cc1)c1c(C)c(I)c(C)n1[B-]2(C)C [BODIPY-CAB] | leads to the release of CAB | new peak located at ˜11.2 min was appeared | did not generate CAB | dramatically deceased rate of photocleavage and photorelease | 59.6% | almost cleaved completely | 41.7% | did not generate CAB | 
2 | [Pt+2].c1ccc(-c2c3nc(c(-c4ccccc4)c4[n-]c(c(-c5ccccc5)c5nc(c(-c6ccccc6)c6[n-]c2c2ccccc62)-c2ccccc2-5)c2ccccc42)-c2ccccc2-3)cc1 [PtTPBP, platinum (II) tetraphenyltetrabenzoporphyrin] |  |  |  |  |  |  |  |  | minimal
